Converted amounts (≈) assume the structure as drawn.
Tests used:
[1] = Cancer cell growth inhibition (WST-1); format: cell-based; settings: Homo sapiens; Prostate cancer, 24 hours
Method: (§1) To investigate whether or not the geranyl flavonoid derivative of the present invention had cancer cell growth inhibiting effect, various human cancer cell lines were treated with CG-901-2 and then cancer cell growth was observed. Particularly, the human breast cancer cell lines MDA-MB-231 and MDA-MB-468, the prostate cancer cell line DU-145, the colorectal cancer cell line HCT116, the pancreatic cancer cell line AsPC-3, or the colon cancer cell line SW620 was distributed in 10% FBS medium, followed by culture in a 37° C. 5% CO2 incubator. The attached grown cells were collected by using trypsin-EDTA. The obtained cells were counted by hematocytometer, which were distributed in 96-well plate at the density of 5,000 cells/well (MDA-MB-231, MDA-MB-468, and DU-145) or at the density of 7,000 cells/well (HCT116 and SW620). 10% FBS medium was added to the plate, followed by culture in a 37° C. 5% CO2 incubator. 24 hours later, the cells were treated with the compound CG-901-2 prepared in Example <1-2> dissolved in DMSO at the concentration of 20 or 50 μg/ml. The negative control was treated with 0.1% DMSO. The cells were further cultured for 24 more hours. Then, 10 μl of the coloring agent, 2-[4-iodophenyl]-3-[4-nitrophenyl]-5-[2,4-disulfophenyl]-2H-tetrazolium (monosodium salt, WST-1; Roche) was treated to the cultured cells, followed by culture for 2 hours. Then, OD450 was measured with ELISA reader (Bio-Rad) to investigate the time-dependent cancer cell growth rate. For 24 hours from the treatment of the compound, the concentration of the compound that allowed only 50% of cancer cell population to survive was calculated based on the above growth rate, and the result was defined as GI50.

[2] = system: HCT116; assay: Cancer cell growth inhibition (WST-1); format: cell-based; settings: Homo sapiens, HCT-116; Colorectal cancer, 24 hours
Method: as §1

[3] = system: MDA-MB-468; assay: Cancer cell growth inhibition (WST-1); format: cell-based; settings: Homo sapiens, Breast cancer, 24 hours
Method: as §1

[4] = system: SW620; assay: Cancer cell growth inhibition (WST-1); format: cell-based; settings: Homo sapiens, SW-620; Colon cancer, 24 hours
Method: as §1

[5] = system: DU-145 tumor; assay: In vivo tumor growth inhibition in prostate cancer mouse model; settings: 50 mg/kg oral, once a day, 10 times, compared with negative control
Method: Particularly, the human originated prostate cancer cell line DU-145 was inoculated in the serum-free medium, followed by culture in a 37° C. 5% CO2 incubator. The cultured DU-145 cells were prepared at the density of 3×10^7 cells/ml. Each BALB/c specific pathogen free female mouse (Nara Biotech Co.) at 6 weeks was administered with the cells at the dose of 9×10^6 cells/0.3 ml via subcutaneous injection in the auxiliary region between the right shoulder and breast wall, leading to the cancer cell transplantation. After the transplantation, the mouse was raised for 25 days until the generated tumor induced by the transplanted cancer cells grew to a measurable size. As a result, the prostate cancer mouse model was constructed. The tumor induced by the transplanted cancer cells was measured in three dimensions which were length, width, and height of the tumor, by using a vernier caliper, […], and the size of the tumor was calculated by the below mathematical formula 1. […] The tumor size was measured on day 0, day 10, day 14, day 16, day 18, day 21, day 23, and day 25. […] The size and weight of the control tumor was measured and compared with the above.

[6] = Physicochemical properties: solubility; settings: for Solubility: Insolubility: solvents in which insoluble; for Solubility: Fusibility: solvents in which soluble
[7] = system: various human cancer cell lines; assay: Cancer cell growth inhibition (WST-1), all cell lines together; format: cell-based
Method: as §1, with “Then, 10 μl of the coloring agent, 2-[4-iodophenyl]-3-[4-nitrophenyl]-5-[2,4-disulfophenyl]-2H-tetrazolium (monosodium salt, WST-1; Roche) was treated to the cultured cells, followed by culture for 2 hours.” left out, “For 24 hours from the treatment of the compound, the concentration of the compound that allowed only 50% of cancer cell population to survive was calculated based on the above growth rate, and the result was defined as GI50.” left out

[8] = system: cyclin A; assay: Western blotting of STAT3 target protein expression in DU-145 cells; format: cell-based, human; settings: DU-145, 20 μM
Method: (§2) To investigate the changes of the expression of STAT3 target genes according to the decrease of STAT3 protein phosphorylation caused by the treatment of geranyl flavonoid derivative CG901-2, the expressions of cyclin A that is well known as a STAT3 target protein, Mcl-1 (Induced myeloid leukemia cell differentiation protein-1), and survivin were examined. Particularly, DU-145 cells were treated with the compound CG-901-2 at the concentration of 20 μM by the same manner as described in Example <2-1>, followed by culture. Western blotting was performed to investigate the expressions of AD (cyclin A), Mcl-1, and survivin. β-actin was used as the control to compare the expression levels.

[9] = system: Mcl-1; assay: as above; format: cell-based, human; settings: DU-145, 20 μM
Method: as §2

[10] = system: survivin; assay: as above; format: cell-based, human; settings: DU-145, 20 μM
Method: as §2

[11] = biological target: T1, STAT3 (Homo sapiens, UniProt P40763); assay: Western blotting of STAT3 expression and phosphorylation in DU-145 cells; format: cell-based; settings: DU-145, 5, 10 or 20 μM, 24 hours
T1 construct: the prostate cancer cell line DU-145 was distributed in three 60-mm plates; endogenous in cells; host or cells: DU-145 prostate cancer cells
Method: To investigate whether or not the novel synthesized geranyl flavonoid derivative of the present invention, CG-901-2, had the activity of inhibiting STAT3 protein activity by inhibiting STAT3 phosphorylation, Western blotting was performed to measure the expression of the phosphorylated STAT3. Particularly, the prostate cancer cell line DU-145 was distributed in three 60-mm plates containing 10% FBS (fetal bovine serum) medium at the density of 80,000 cells/plate, followed by culture in a 37° C. 5% CO2 incubator for 24 hours. Upon completion of the culture, the CG-901-2 compound prepared in Example <1-2> was treated to each plate at the concentration of 5, 10, or 20 μM. The negative control was treated with 0.25% DMSO, followed by culture for 24 hours. Then, the medium was discarded from each plate. The plate was then washed with PBS, to which 200 μl of Ripa lysis buffer was added. The cells attached on the plate were collected by using a scraper. […] The lysate mixture was placed in a 96-well plate, and […] was measured using ELISA reader in order to quantify the protein. After the quantification, the lysate containing the equal amount of protein was prepared, which was mixed with lysis buffer and 5× dye, leading to the preparation of a loading sample. […]

T1 sequence (P40763 whole entry): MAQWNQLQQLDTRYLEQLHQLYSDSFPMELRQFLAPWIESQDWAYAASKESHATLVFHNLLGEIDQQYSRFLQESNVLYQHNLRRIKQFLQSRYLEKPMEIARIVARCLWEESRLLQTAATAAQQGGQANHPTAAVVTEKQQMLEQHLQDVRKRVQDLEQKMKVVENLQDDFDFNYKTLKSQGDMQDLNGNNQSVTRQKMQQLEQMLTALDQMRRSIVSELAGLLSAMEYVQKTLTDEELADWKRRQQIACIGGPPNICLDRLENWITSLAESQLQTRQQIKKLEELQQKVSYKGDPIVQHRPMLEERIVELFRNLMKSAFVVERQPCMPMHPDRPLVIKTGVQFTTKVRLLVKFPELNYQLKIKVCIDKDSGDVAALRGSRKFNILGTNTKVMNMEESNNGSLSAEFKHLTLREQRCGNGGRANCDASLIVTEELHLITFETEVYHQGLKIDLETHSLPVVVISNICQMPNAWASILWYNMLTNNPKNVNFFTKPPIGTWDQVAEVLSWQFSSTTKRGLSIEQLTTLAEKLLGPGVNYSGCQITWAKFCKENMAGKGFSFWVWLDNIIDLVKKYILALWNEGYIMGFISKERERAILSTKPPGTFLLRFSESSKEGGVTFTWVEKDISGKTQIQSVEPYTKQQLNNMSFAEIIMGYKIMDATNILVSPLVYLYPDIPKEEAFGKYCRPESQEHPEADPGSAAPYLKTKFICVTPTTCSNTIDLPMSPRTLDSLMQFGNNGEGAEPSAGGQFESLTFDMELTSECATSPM

CC(C)=CCC[C@]1(C)C=Cc2c(CCC(=O)c3ccc(OCCN(C)C)cc3O)ccc(O)c2O1.Cl [CG-901-2, (R)-2-(3-hydroxy-4-(3-(8-hydroxy-2-methyl-2-(4-methylpent-3-enyl)-2H-chromen-5-yl)propanoyl)phenoxy)-N,N-dimethylethanaminium chloride]
GI50 [1]: 20 µM
GI50 [2]: 25 µM
GI50 [3]: 30 µM
GI50 [4]: 50 µM
tumor size growth inhibited [5]: approximately 38.8%
weight of the tumor reduced ([5]; day 25): 40.5%
Solubility: Insolubility [6]: Hexane, Ethylacetate
Solubility: Fusibility [6]: Alcohol, H2O
GI50 ([7]; Homo sapiens, MDA-MB-231, MDA-MB-468, DU-145, HCT116, AsPC-3, SW620, read-out: GI50 concentration range of each cancer cell line): 15 to 30 µM
cancer cell growth rate ([7]; compared with negative control): reduced over the time
expression of cyclin A [8]: down-regulated
expression of Mcl-1 [9]: down-regulated
expression of survivin [10]: down-regulated
expression of STAT3 [11]: not changed
phosphorylation of STAT3 [11]: reduced CG-901-2 dose-dependently

CC(C)=CCC[C@]1(C)C=Cc2c(CCC(=O)c3ccc(OCCN(C)C)cc3O)ccc(O)c2O1 [CG-901-1, (R)-1-(4-(2-(dimethylamino)ethoxy)-2-hydroxyphenyl)-3-(8-hydroxy-2-methyl-2-(4-methylpent-3-enyl)-2H-chromen-5-yl)propan-1-one]
Solubility: Insolubility [6]: Hexane
Solubility: Fusibility [6]: Alcohol, DMSO
solubility ([6]; water): 300 µM (≈ 144 µg/mL)

— patent publication US9580399B2, “Geranyl flavonoid derivative with improved water solubility, a method for preparing the same, and a method for treating cancer using the same” (KOREA RESEARCH INSTITUTE OF BIOSCIENCE AND BIOTECHNOLOGY, priority 2014, dated 2017)
